Square brackets hold non-standard residues; d marks the D form. Peptide text beside a SMILES is read from it. * marks the point of attachment. Sta = CC(C)C[C@H](N)[C@@H](O)CC(=O)O; Isovaleryl = CC(C)CC(=O)*; NHIsopentyl = CC(C)CCN*; Boc = CC(C)(C)OC(=O)*

The first test addresses T1, Cathepsin D (Bos taurus, UniProt P80209).
T1 sequence (P80209 whole entry): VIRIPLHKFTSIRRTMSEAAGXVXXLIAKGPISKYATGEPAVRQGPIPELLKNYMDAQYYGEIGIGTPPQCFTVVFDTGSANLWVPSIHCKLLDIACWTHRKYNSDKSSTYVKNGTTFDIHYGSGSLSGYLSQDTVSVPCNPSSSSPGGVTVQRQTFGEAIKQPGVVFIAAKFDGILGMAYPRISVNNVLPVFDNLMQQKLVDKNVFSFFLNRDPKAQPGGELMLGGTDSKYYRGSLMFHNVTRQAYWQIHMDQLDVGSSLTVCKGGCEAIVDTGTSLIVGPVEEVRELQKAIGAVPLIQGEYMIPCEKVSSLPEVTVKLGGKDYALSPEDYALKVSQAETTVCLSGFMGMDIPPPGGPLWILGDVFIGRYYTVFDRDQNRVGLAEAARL
Briefly: Inhibition of cathepsin D.
Broadly, the Ki is the equilibrium dissociation constant of an inhibitor or competing ligand from its target. Consider `COC(=O)[C@H](CC(C)C)NC(=O)[C@@H](NC(=O)[C@H](Cc1ccccc1)NC(=O)C[C@H](O)[C@H](CC(C)C)NC(=O)[C@H](C)NC(=O)[C@H](Cc1ccccc1)NC(=O)[C@H](Cc1ccccc1)NC(=O)OC(C)(C)C)C(C)C` (Boc-FFA[Sta]FVL-OMe), for which the inhibition constant (Ki) stood at 12 nM. Consider `COC(=O)[C@H](C)NC(=O)C[C@H](O)[C@H](CC(C)C)NC(=O)[C@@H](NC(=O)[C@@H](NC(=O)CC(C)C)C(C)C)C(C)C` (Isovaleryl-VV[Sta]A-OMe), for which the Ki came to 90 nM. In turn, `CC(C)CCNC(=O)[C@H](C)NC(=O)C[C@H](O)[C@H](Cc1ccccc1)NC(=O)[C@H](NC(=O)CC(C)C)C(C)C` showed a Ki of 1070 nM. In turn, `CC(C)CCNC(=O)[C@H](C)NC(=O)C[C@H](O)[C@H](CC(C)C)NC(=O)[C@@H](NC(=O)OC(C)C)C(C)C` showed an inhibition constant (Ki) of 620 nM.

Turning to `CC(C)CCNC(=O)[C@H](C)NC(=O)C[C@H](O)[C@H](CC(C)C)NC(=O)[C@@H](NC(=O)C(C)(C)C)C(C)C`, the Ki amounted to 110 nM. In turn, `CC(C)CCNC(=O)[C@H](C)NC(=O)C[C@H](O)[C@@H](Cc1ccccc1)NC(=O)[C@H](NC(=O)CC(C)C)C(C)C` had a Ki of 52 nM. On to `COC(=O)[C@H](C)NC(=O)C[C@H](O)[C@H](CC(C)C)NC(=O)[C@@H](NC(=O)CC(C)C)C(C)C`, for which the Ki stood at 1800 nM. The same measure, in the same setting: as for `COC(=O)[C@H](CC(C)C)NC(=O)[C@@H](NC(=O)C[C@H](O)[C@H](CC(C)C)NC(=O)[C@H](C)NC(=O)[C@H](C)NC(=O)[C@H](Cc1ccccc1)NC(=O)OC(C)(C)C)C(C)C` (Boc-FAA[Sta]VL-OMe), the figure is 12 nM; as for `CC(C)CCNC(=O)[C@H](C)NC(=O)C[C@@H](O)[C@@H](CC(C)C)NC(=O)[C@@H](NC(=O)[C@@H](NC(=O)OC(C)(C)C)C(C)C)C(C)C`, 445 nM. For the compound `CCOC(=O)C[C@H](O)[C@H](CC(C)C)NC(=O)[C@@H](NC(=O)[C@@H](NC(=O)CC(C)C)C(C)C)C(C)C` (Isovaleryl-Val-Val-[Sta]-OEt), the Ki is 180 nM. Regarding `CC(C)CCNC(=O)[C@H](C)NC(=O)C[C@H](O)[C@H](Cc1ccccc1)NC(=O)[C@@H](NC(=O)[C@@H](NC(=O)CC(C)C)C(C)C)C(C)C`, the inhibition constant Ki amounted to 1 nM.

The compound `CC(C)CCNC(=O)[C@H](C)NC(=O)C[C@H](O)[C@H](CC(C)C)NC(=O)[C@@H](NC(=O)OC(C)(C)C)C(C)C` displayed a Ki of 2700 nM. Still for that read-out and setting: next, `COC(=O)[C@H](CC(C)C)NC(=O)[C@H](C)NC(=O)C[C@H](O)[C@H](CC(C)C)NC(=O)[C@@H](NC(=O)CC(C)C)C(C)C` (Isovaleryl-V[Sta]AL-OMe): 43 nM; `CC(C)CCNC(=O)[C@H](C)NC(=O)C[C@H](C)[C@@H](CC(C)C)NC(=O)[C@@H](NC(=O)[C@@H](NC(=O)CC(C)C)C(C)C)C(C)C`: 214 nM. In turn, `COC(=O)[C@H](CC(C)C)NC(=O)[C@@H](NC(=O)[C@H](Cc1ccccc1)NC(=O)C[C@H](O)[C@H](CC(C)C)NC(=O)[C@H](C)NC(=O)[C@H](CC(C)C)NC(=O)[C@H](Cc1ccccc1)NC(=O)OC(C)(C)C)C(C)C` (Boc-FLA[Sta]FVL-OMe) gave a Ki of 5.8 nM.

As for `CCC(CC)C(=O)N[C@H](C(=O)N[C@@H](CC(C)C)[C@@H](O)CC(=O)N[C@@H](C)C(=O)NCCC(C)C)C(C)C`, the affinity corresponds to a Ki of 120 nM. Consider `COC(=O)[C@H](CC(C)C)NC(=O)[C@@H](NC(=O)[C@H](Cc1ccccc1)NC(=O)C[C@H](O)[C@H](CC(C)C)NC(=O)[C@H](C)NC(=O)[C@H](C)NC(=O)[C@H](Cc1ccccc1)NC(=O)OC(C)(C)C)C(C)C` (Boc-FAA[Sta]FVL-OMe), for which the affinity corresponds to a Ki of 60 nM.

As for `CC(C)CCNC(=O)[C@H](C)NC(=O)C[C@H](O)[C@H](CC(C)C)NC(=O)[C@@H](NC(=O)CC(C)C)C(C)C`, the affinity, expressed as Ki, was 220 nM. With `CC(C)CCNC(=O)[C@H](C)NC(=O)C[C@H](O)[C@@H](CC(C)C)NC(=O)[C@@H](NC(=O)CC(C)C)C(C)C`, affinity was put at a Ki of 2100 nM. On to `CC(C)CCNC(=O)[C@H](C)NC(=O)C[C@H](C)[C@H](Cc1ccccc1)NC(=O)[C@@H](NC(=O)OC(C)(C)C)C(C)C`, for which affinity was put at a Ki of 930 nM. Compound `CC(C)CCNC(=O)[C@H](C)NC(=O)C[C@H](O)[C@H](CC(C)C)NC(=O)[C@@H](NC(=O)C(C)C)C(C)C` had a Ki of 590 nM. On to `CCC(C)C(=O)N[C@H](C(=O)N[C@@H](CC(C)C)[C@@H](O)CC(=O)N[C@@H](C)C(=O)NCCC(C)C)C(C)C` (stereo partly specified), for which affinity was put at a Ki of 230 nM. As to `COC(=O)[C@H](Cc1ccccc1)NC(=O)[C@H](C)NC(=O)C[C@H](O)[C@H](CC(C)C)NC(=O)[C@@H](NC(=O)CC(C)C)C(C)C` (Isovaleryl-V[Sta]AF-OMe), the inhibition constant (Ki) was found to be 23 nM.

The compound `CC(C)CCNC(=O)[C@H](C)NC(=O)C[C@@H](O)[C@@H](CC(C)C)NC(=O)[C@@H](NC(=O)CC(C)C)C(C)C` had a Ki of 1400 nM. In turn, `CC(C)CCNC(=O)[C@H](C)NC(=O)C[C@H](O)[C@H](Cc1ccccc1)NC(=O)[C@@H](NC(=O)OC(C)(C)C)C(C)C` registered a Ki of 370 nM. Take `CC(C)CCNC(=O)[C@H](C)NC(=O)C(C(=O)[C@H](CC(C)C)NC(=O)[C@@H](NC(=O)[C@@H](NC(=O)CC(C)C)C(C)C)C(C)C)[S+](C)C` (stereo partly specified): the inhibition constant Ki was determined as 107 nM. In turn, `CC(C)CCNC(=O)[C@H](C)NC(=O)C[C@H](O)[C@H](CC(C)C)NC(=O)[C@@H](NC(=O)[C@@H](NC(=O)OC(C)(C)C)C(C)C)C(C)C` returned an inhibitory constant (Ki) of 1.1 nM. Consider `CC(C)CCNC(=O)[C@H](C)NC(=O)C[C@H](O)[C@@H](Cc1ccccc1)NC(=O)[C@@H](NC(=O)[C@@H](NC(=O)CC(C)C)C(C)C)C(C)C`, for which the Ki was found to be 100 nM.

`CC(C)CCNC(=O)[C@H](C)NC(=O)C[C@H](O)[C@H](CC(C)C)NC(=O)[C@@H](NC(=O)[C@@H](NC(=O)CC(C)C)C(C)C)C(C)C` registered an inhibition constant Ki of 3.7 nM.

As to `CC(C)CCNC(=O)[C@H](C)NC(=O)C[C@H](O)[C@@H](Cc1ccccc1)NC(=O)[C@@H](NC(=O)[C@@H](NC(=O)OC(C)(C)C)C(C)C)C(C)C`, the affinity, expressed as Ki, was 95 nM. `CC(C)CCNC(=O)[C@H](C)NC(=O)C[C@H](O)[C@@H](Cc1ccccc1)NC(=O)[C@@H](NC(=O)OC(C)(C)C)C(C)C` returned an inhibition constant Ki of 4860 nM.

`CC(C)CCNC(=O)[C@H](C)NC(=O)C[C@H](O)[C@@H](CC(C)C)NC(=O)[C@@H](NC(=O)[C@@H](NC(=O)CC(C)C)C(C)C)C(C)C` came in with a Ki of more than 100 nM. As to `CC(C)CCNC(=O)[C@H](C)NC(=O)C[C@H](C)[C@H](CC(C)C)NC(=O)[C@@H](NC(=O)[C@@H](NC(=O)CC(C)C)C(C)C)C(C)C`, the inhibition constant (Ki) was 400 nM.

For the compound `CC(C)CCNC(=O)[C@H](C)NC(=O)CC(=O)[C@H](CC(C)C)NC(=O)[C@@H](NC(=O)[C@@H](NC(=O)CC(C)C)C(C)C)C(C)C`, the Ki turned out to be 25 nM.

`CC(C)CCNC(=O)[C@H](C)NC(=O)C[C@H](O)[C@H](CC(C)C)NC(=O)[C@H](C)NC(=O)[C@H](C)NC(=O)[C@H](Cc1ccccc1)NC(=O)OC(C)(C)C` (Boc-FAA[Sta]A-NHIsopentyl) showed a Ki of 100 nM. For `CC(C)CCNC(=O)[C@H](C)NC(=O)C[C@H](O)[C@H](Cc1ccccc1)NC(=O)[C@@H](NC(=O)[C@@H](NC(=O)OC(C)(C)C)C(C)C)C(C)C`, the inhibition constant (Ki) came to 2.1 nM.

In the next test the target is Pepsin A (Sus scrofa, UniProt P00791). Briefly: Compound was tested for inhibition of pepsin.
Pepsin A, sequence (P00791 whole entry): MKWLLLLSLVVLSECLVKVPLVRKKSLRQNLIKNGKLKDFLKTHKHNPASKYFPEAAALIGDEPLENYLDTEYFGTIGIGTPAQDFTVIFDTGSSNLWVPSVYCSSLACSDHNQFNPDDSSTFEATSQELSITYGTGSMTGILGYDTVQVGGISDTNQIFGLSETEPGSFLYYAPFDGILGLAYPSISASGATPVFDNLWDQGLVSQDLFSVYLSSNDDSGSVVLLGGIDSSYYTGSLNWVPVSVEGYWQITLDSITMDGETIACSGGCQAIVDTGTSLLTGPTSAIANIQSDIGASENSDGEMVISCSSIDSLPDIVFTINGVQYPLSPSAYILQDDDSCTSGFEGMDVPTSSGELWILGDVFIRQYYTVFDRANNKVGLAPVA
Regarding `COC(=O)[C@H](CC(C)C)NC(=O)[C@@H](NC(=O)[C@H](Cc1ccccc1)NC(=O)C[C@H](O)[C@H](CC(C)C)NC(=O)[C@H](C)NC(=O)[C@H](Cc1ccccc1)NC(=O)[C@H](Cc1ccccc1)NC(=O)OC(C)(C)C)C(C)C` (Boc-FFA[Sta]FVL-OMe), the inhibition constant (Ki) came to 24 nM. In turn, `COC(=O)[C@H](CC(C)C)NC(=O)[C@@H](NC(=O)C[C@H](O)[C@H](CC(C)C)NC(=O)[C@H](C)NC(=O)[C@H](C)NC(=O)[C@H](Cc1ccccc1)NC(=O)OC(C)(C)C)C(C)C` (Boc-FAA[Sta]VL-OMe) returned an inhibitory constant (Ki) of 2.8 nM. The compound `COC(=O)[C@H](CC(C)C)NC(=O)[C@@H](NC(=O)[C@H](Cc1ccccc1)NC(=O)C[C@H](O)[C@H](CC(C)C)NC(=O)[C@H](C)NC(=O)[C@H](CC(C)C)NC(=O)[C@H](Cc1ccccc1)NC(=O)OC(C)(C)C)C(C)C` (Boc-FLA[Sta]FVL-OMe) displayed an inhibitory constant (Ki) of 0.64 nM. Regarding `COC(=O)[C@H](CC(C)C)NC(=O)[C@@H](NC(=O)[C@H](Cc1ccccc1)NC(=O)C[C@H](O)[C@H](CC(C)C)NC(=O)[C@H](C)NC(=O)[C@H](C)NC(=O)[C@H](Cc1ccccc1)NC(=O)OC(C)(C)C)C(C)C` (Boc-FAA[Sta]FVL-OMe), the Ki stood at 1.7 nM. In turn, `CC(C)CCNC(=O)[C@H](C)NC(=O)C[C@H](O)[C@H](CC(C)C)NC(=O)[C@H](C)NC(=O)[C@H](C)NC(=O)[C@H](Cc1ccccc1)NC(=O)OC(C)(C)C` (Boc-FAA[Sta]A-NHIsopentyl) returned an inhibition constant Ki of 3.3 nM.

The values above are taken from ChEMBL document CHEMBL1123387 (J Med Chem, 1986).
